ChEMBL document CHEMBL3046688, “Antitumor and Anti-Pneumocystis Carinii Activities of Novel Bisbenzamidines” (Med Chem Res, 2005)

How the values were obtained:
[1] = Binding affinity to Poly (dA-dT) DNA at 1:5 compound to DNA base pair ratio
Pneumocystis carinii [2] = assay: Ratio of pentamidine IC50 to compound IC50 for Pneumocystis carinii assessed as ATP level detection by bioluminescence assay; type: functional
[3] = Selectivity index, ratio of GI50 for human tumor cells to IC50 for Pneumocystis carini
DNA = assay: Binding affinity to Bos taurus (calf) thymus DNA at 1:5 compound to DNA base pair ratio; type: nucleic-acid assay
SF-268 = assay: Cytotoxicity against Homo sapiens (human) SF268 cells at 100 uM after 48 hr by SRB assay relative to control; type: cell-based; conditions: sf-268, 48 h
MCF7 = assay: Cytotoxicity against Homo sapiens (human) MCF7 cells at 100 uM after 48 hr by SRB assay relative to control; type: cell-based; conditions: mcf7, 48 h
NCI-H460 = assay: Cytotoxicity against Homo sapiens (human) NCI-H460 cells at 100 uM after 48 hr by SRB assay relative to control; type: cell-based; conditions: nci-h460, 48 h
Pneumocystis carinii [4] = assay: Antimicrobial activity against Pneumocystis carinii assessed as ATP level detection by bioluminescence assay; type: functional, organism-based
[5] = Growth inhibition of Homo sapiens (human) ovarian cancer cells after 48 hr by SRB assay; type: cell-based; conditions: cancer cell lines
A498 = assay: Growth inhibition of Homo sapiens (human) A498 cells after 48 hr by SRB assay; type: cell-based; conditions: a498, 48 h
SN12C = assay: Growth inhibition of Homo sapiens (human) SN12C cells after 48 hr by SRB assay; type: cell-based
CAKI-1 = assay: Growth inhibition of Homo sapiens (human) Caki1 cells after 48 hr by SRB assay; type: cell-based; conditions: caki-1, 48 h
Malme-3M = assay: Growth inhibition of Homo sapiens (human) MALME-3M cells after 48 hr by SRB assay; type: cell-based
SR = assay: Growth inhibition of Homo sapiens (human) SR cells after 48 hr by SRB assay; type: cell-based

## N=C(N)c1ccc(NC(=O)CCCCC(=O)Nc2ccc(C(=N)N)cc2)cc1
[1]
  ΔTm: 14.4 °C
Pneumocystis carinii [2]
  Ratio IC50: 167
[3]
  Selectivity Index: >50000
DNA
  ΔTm: 8.7 °C
SF-268
  Activity: 52%
MCF7
  Activity: 34%
NCI-H460
  Activity: 75%

## N=C(NC1CC1)c1ccc(N2CCCN(c3ccc(C(=N)NC4CC4)cc3)CC2)cc1
[1]
  ΔTm: 23.6 °C
Pneumocystis carinii [4]
  IC50: 1400 nM
[3]
  Selectivity Index: >71
DNA
  ΔTm: 15.3 °C
SF-268
  Activity: 104%
MCF7
  Activity: 87%
NCI-H460
  Activity: 71%

## N=C(N)c1ccc(OCc2cccc(COc3ccc(C(=N)N)cc3)c2)cc1
[1]
  ΔTm: 23.9 °C
Pneumocystis carinii [4]
  IC50: 2600 nM
[5]
  Activity: Non-toxic
[3]
  Selectivity Index: 3
DNA
  ΔTm: 14 °C
SF-268
  Activity: 0%
MCF7
  Activity: 0%
NCI-H460
  Activity: 0%

## c1cc(N2CCCN(c3ccc(C4=NCCCN4)cc3)CC2)ccc1C1=NCCCN1
[1]
  ΔTm: 21.3 °C
Pneumocystis carinii [4]
  IC50: 4500 nM
A498
  Activity: Toxic
[3]
  Selectivity Index: 18
DNA
  ΔTm: 15.5 °C
SF-268
  Activity: 55%
SN12C
  Activity: Toxic
MCF7
  Activity: 42%
NCI-H460
  Activity: 28%

## N=C(N)c1ccc(N2CCCN(c3ccc(C(=N)N)cc3)CC2)cc1
[1]
  ΔTm: 23.1 °C
Pneumocystis carinii [4]
  IC50: 2000 nM
A498
  pGI50: 5.1
CAKI-1
  pGI50: 5.1
[3]
  Selectivity Index: 32
DNA
  ΔTm: 15 °C
SF-268
  Activity: 94%
SN12C
  pGI50: 5.1
MCF7
  Activity: 87%
NCI-H460
  Activity: 44%

## N#Cc1ccc(N2CCCN(c3ccc(C#N)cc3)CC2)cc1
SF-268
  Activity: 101%
MCF7
  Activity: 70%
NCI-H460
  Activity: 92%

## N=C(N)c1ccc(COc2ccccc2OCc2ccc(C(=N)N)cc2)cc1
[1]
  ΔTm: -0.1 °C
Pneumocystis carinii [4]
  IC50: 1700 nM
A498
  pGI50: 5.1
CAKI-1
  pGI50: 5.1
[3]
  Selectivity Index: 24
DNA
  ΔTm: 0.1 °C
SF-268
  Activity: 27%
SN12C
  pGI50: 5.1
MCF7
  Activity: 42%
NCI-H460
  Activity: 5%

## c1cc(N2CCN(c3ccc(C4=NCCCN4)cc3)CC2)ccc1C1=NCCCN1
[1]
  ΔTm: 17.9 °C
Pneumocystis carinii [4]
  IC50: 3000 nM
A498
  Activity: Toxic
[3]
  Selectivity Index: >33
DNA
  ΔTm: 12.2 °C
SF-268
  Activity: 93%
SN12C
  Activity: Toxic
MCF7
  Activity: 77%
NCI-H460
  Activity: 18%

## N=C(N)c1ccc(OC(=O)c2ccc(C(=O)Oc3ccc(C(=N)N)cc3)cc2)cc1 [BIS(4-CARBAMIMIDOYLPHENYL)TEREPHTHALATE]
[1]
  ΔTm: 10.4 °C
[3]
  Selectivity Index: >8
DNA
  ΔTm: 9.9 °C
SF-268
  Activity: 94%
MCF7
  Activity: 79%
NCI-H460
  Activity: 96%

## N=C(N)c1ccc(OCCCCCOc2ccc(C(=N)N)cc2)cc1 [PENTAMIDINE]
[1]
  ΔTm: 20.6 °C
[3]
  Selectivity Index: 20
DNA
  ΔTm: 11.6 °C

## CCCCNC(=N)c1ccc(N2CCCN(c3ccc(C(=N)NCCCC)cc3)CC2)cc1
[1]
  ΔTm: 13.3 °C
Malme-3M
  pGI50: 6.4
Pneumocystis carinii [4]
  IC50: 357 nM
A498
  pGI50: 6.8
[3]
  Selectivity Index: 36
DNA
  ΔTm: 11.8 °C
SF-268
  Activity: 101%
MCF7
  Activity: 39%
NCI-H460
  Activity: 17%
SR
  pGI50: 6.2

## N#Cc1ccc(N2CCN(c3ccc(C#N)cc3)CC2)cc1
[1]
  ΔTm: -0.2 °C
Pneumocystis carinii [4]
  IC50: > 125000 nM
DNA
  ΔTm: 0 °C
SF-268
  Activity: 105%
MCF7
  Activity: 102%
NCI-H460
  Activity: 106%

## N=C(N)c1ccc(NC(=O)CCCC(=O)Nc2ccc(C(=N)N)cc2)cc1
[1]
  ΔTm: 11.4 °C
Pneumocystis carinii [2]
  Ratio IC50: 167
[3]
  Selectivity Index: >33333
DNA
  ΔTm: 5.6 °C
SF-268
  Activity: 121%
MCF7
  Activity: 122%
NCI-H460
  Activity: 105%

## N=C(NC1CC1)c1ccc(N2CCN(c3ccc(C(=N)NC4CC4)cc3)CC2)cc1
[1]
  ΔTm: 23.9 °C
Pneumocystis carinii [4]
  IC50: 5400 nM
[3]
  Selectivity Index: >19
DNA
  ΔTm: 14.5 °C
SF-268
  Activity: 115%
MCF7
  Activity: 108%
NCI-H460
  Activity: 74%
